Assays:
Type in all cases: in vivo
[1] = system: Echinochloa oryzoides (Ard.) Fritsch.; test: Preemergence weed control under flooded paddy conditions, ECHORC (Watergrass (Calif.)); details: flooded paddy, rated three to four weeks after treatment
Cyperus iria = test: Preemergence weed control under flooded paddy conditions, CYPIR (Rice Flatsedge); details: flooded paddy, rated three to four weeks after treatment
Sagittaria pygmaea, L. = test: Preemergence weed control under flooded paddy conditions, SAGPY (Arrowhead (Pygmaea)); details: flooded paddy, rated three to four weeks after treatment
[2] = system: Monochoria vaginalis, Presl.; test: Preemergence weed control under flooded paddy conditions, MOOVA (Monochoria); details: flooded paddy, rated three to four weeks after treatment
[3] = system: Cyperus serotinus, Rottb.; test: Preemergence weed control under flooded paddy conditions, CYPSE (Flatsedge); details: rated three to four weeks after treatment
[4] = Rate 0.0320 kg/ha, preemergence weeds
[5] = Rate 0.0620 kg/ha, preemergence weeds
[6] = Rate 0.1250 kg/ha, preemergence weeds
[7] = Rate 0.2500 kg/ha, preemergence weeds
[8] = Rate 0.0320 kg/ha, preemergence
[9] = Rate 0.0620 kg/ha, preemergence
[10] = Rate 0.1250 kg/ha, preemergence
[11] = Rate 0.2500 kg/ha, preemergence
[12] = Rate 0.5000 kg/ha, preemergence
Further: meaning of each grade not given here.

Structure (SMILES)	herbicidal effect rating, ECHORC [1, 8]	herbicidal effect rating, ECHORC [1, 9]	herbicidal effect rating, ECHORC [1, 10]	herbicidal effect rating, ECHORC [1, 11]	herbicidal effect rating, CYPIR (Cyperus iria; [8])	herbicidal effect rating, CYPIR (Cyperus iria; [9])	herbicidal effect rating, CYPIR (Cyperus iria; [10])	herbicidal effect rating, CYPIR (Cyperus iria; [11])	herbicidal effect rating, SAGPY (Sagittaria pygmaea, L.; [8])	herbicidal effect rating, SAGPY (Sagittaria pygmaea, L.; [9])	herbicidal effect rating, SAGPY (Sagittaria pygmaea, L.; [10])	herbicidal effect rating, SAGPY (Sagittaria pygmaea, L.; [11])	herbicidal effect rating, MOOVA [2, 8]	herbicidal effect rating, MOOVA [2, 9]	herbicidal effect rating, MOOVA [2, 10]	herbicidal effect rating, MOOVA [2, 11]	herbicidal effect rating, CYPSE [3, 8]	herbicidal effect rating, CYPSE [3, 9]	herbicidal effect rating, CYPSE [3, 10]	herbicidal effect rating, CYPSE [3, 11]	also measured
CC(OS(C)(=O)=O)c1nsc2ccc(-n3c(=O)cc(C(F)(F)F)n(C)c3=O)cc12 (centres unmarked) [Example 309, 2,4(1H,3H)-Pyrimidinedione, 3-[3-(1-hydroxyethyl)-1,2-benzisothiazol-5-yl]-1-methyl-6-(trifluoromethyl)-, methanesulfonate (ester)]																					herbicidal effect rating, ECHORC [1, 4]: 1.0; herbicidal effect rating, ECHORC [1, 5]: 2.0; herbicidal effect rating, ECHORC [1, 6]: 4.0; herbicidal effect rating, ECHORC [1, 7]: 7.0; herbicidal effect rating, CYPIR (Cyperus iria; [4]): 9.0; herbicidal effect rating, CYPIR (Cyperus iria; [5]): 9.0; herbicidal effect rating, CYPIR (Cyperus iria; [6]): 9.0; herbicidal effect rating, CYPIR (Cyperus iria; [7]): 9.0; herbicidal effect rating, SAGPY (Sagittaria pygmaea, L.; [4]): 2.0; herbicidal effect rating, SAGPY (Sagittaria pygmaea, L.; [5]): 3.0; herbicidal effect rating, SAGPY (Sagittaria pygmaea, L.; [6]): 4.0; herbicidal effect rating, SAGPY (Sagittaria pygmaea, L.; [7]): 8.0; herbicidal effect rating, MOOVA [2, 4]: 6.0; herbicidal effect rating, MOOVA [2, 5]: 6.0; herbicidal effect rating, MOOVA [2, 6]: 9.0; herbicidal effect rating, MOOVA [2, 7]: 9.0; herbicidal effect rating, CYPSE [3, 4]: 0.0; herbicidal effect rating, CYPSE [3, 5]: 0.0; herbicidal effect rating, CYPSE [3, 6]: 0.0; herbicidal effect rating, CYPSE [3, 7]: 7.0
Cn1c(C(F)(F)F)cc(=O)n(-c2ccc3snc(CO[N+](=O)[O-])c3c2)c1=O [Example 310, 2,4(1H,3H)-Pyrimidinedione, 3-[3-(hydroxymethyl)-1,2-benzisothiazol-5-yl]-1-methyl-6-(trifluoromethyl)-, nitrate (ester)]																					herbicidal effect rating, ECHORC [1, 4]: 0.0; herbicidal effect rating, ECHORC [1, 5]: 0.0; herbicidal effect rating, ECHORC [1, 6]: 2.0; herbicidal effect rating, ECHORC [1, 7]: 3.0; herbicidal effect rating, CYPIR (Cyperus iria; [4]): 9.0; herbicidal effect rating, CYPIR (Cyperus iria; [5]): 9.0; herbicidal effect rating, CYPIR (Cyperus iria; [6]): 9.0; herbicidal effect rating, CYPIR (Cyperus iria; [7]): 9.0; herbicidal effect rating, SAGPY (Sagittaria pygmaea, L.; [4]): 0.0; herbicidal effect rating, SAGPY (Sagittaria pygmaea, L.; [5]): 0.0; herbicidal effect rating, SAGPY (Sagittaria pygmaea, L.; [6]): 0.0; herbicidal effect rating, SAGPY (Sagittaria pygmaea, L.; [7]): 0.0; herbicidal effect rating, MOOVA [2, 4]: 9.0; herbicidal effect rating, MOOVA [2, 5]: 9.0; herbicidal effect rating, MOOVA [2, 6]: 9.0; herbicidal effect rating, MOOVA [2, 7]: 9.0; herbicidal effect rating, CYPSE [3, 4]: 0.0; herbicidal effect rating, CYPSE [3, 5]: 0.0; herbicidal effect rating, CYPSE [3, 6]: 0.0; herbicidal effect rating, CYPSE [3, 7]: 0.0
Cn1c(C(F)(F)F)cc(=O)n(-c2ccc3snc(COS(C)(=O)=O)c3c2)c1=O [Example 363, 2,4(1H,3H)-Pyrimidinedione, 3-[3-(hydroxymethyl)-1,2-benzisothiazol-5-yl]-1-methyl-6-(trifluoromethyl)-, methanesulfonate (ester)]	3.0	4.0	5.0	6.0	6.0	7.0	7.0	7.0	3.0	5.0	7.0	9.0	9.0	9.0	9.0	9.0	0.0	0.0	5.0	7.0	herbicidal effect rating, ECHORC [1, 12]: 7.0; herbicidal effect rating, CYPIR (Cyperus iria; [12]): 8.0; herbicidal effect rating, SAGPY (Sagittaria pygmaea, L.; [12]): 9.0; herbicidal effect rating, MOOVA [2, 12]: 9.0; herbicidal effect rating, CYPSE [3, 12]: 7.0
Cn1c(C(F)(F)F)cc(=O)n(-c2ccc3snc(COC(=O)c4ccccc4)c3c2)c1=O [Example 364, 2,4(1H,3H)-Pyrimidinedione, 3-[3-(hydroxymethyl)-1,2-benzisothiazol-5-yl]-1-methyl-6-(trifluoromethyl)-, benzoate (ester)]	3.0	5.0	6.0	6.0	7.0	7.0	9.0	9.0	4.0	4.0	5.0	9.0	9.0	9.0	9.0	9.0	3.0	3.0	5.0	6.0	herbicidal effect rating, ECHORC [1, 12]: 7.0; herbicidal effect rating, CYPIR (Cyperus iria; [12]): 9.0; herbicidal effect rating, SAGPY (Sagittaria pygmaea, L.; [12]): 9.0; herbicidal effect rating, MOOVA [2, 12]: 9.0; herbicidal effect rating, CYPSE [3, 12]: 7.0
Cn1c(C(F)(F)F)cc(=O)n(-c2ccc3snc(COC(=O)CCl)c3c2)c1=O [Example 368, 2,4(1H,3H)-Pyrimidinedione, 3-[3-(hydroxymethyl)-1,2-benzisothiazol-5-yl]-1-methyl-6-(trifluoromethyl)-, chloroacetate (ester)]	3.0	7.0	7.0	8.0	7.0	9.0	9.0	9.0	5.0	6.0	9.0	9.0	9.0	9.0	9.0	9.0	0.0	4.0	7.0	8.0	
CC(C)S(=O)(=O)OCc1nsc2ccc(-n3c(=O)cc(C(F)(F)F)n(C)c3=O)cc12 [Example 371, 2,4(1H,3H)-Pyrimidinedione, 3-[3-(hydroxymethyl)-1,2-benzisothiazol-5-yl]-1-methyl-6-(trifluoromethyl)-, 1-methylethanesulfonate (ester)]	3.0	4.0	6.0	7.0	4.0	6.0	9.0	9.0	3.0	4.0	9.0	9.0	9.0	9.0	9.0	9.0	0.0	0.0	6.0	9.0	
Cn1c(C(F)(F)F)cc(=O)n(-c2ccc3snc(COC(=O)Nc4ccccc4)c3c2)c1=O [Example 375, 2,4(1H,3H)-Pyrimidinedione, 3-[3-(hydroxymethyl)-1,2-benzisothiazol-5-yl]-1-methyl-6-(trifluoromethyl)-, phenylcarbamate (ester)]	6.0	6.0	9.0	9.0	3.0	4.0	6.0	9.0	7.0	9.0	9.0	9.0	9.0	9.0	9.0	9.0	0.0	0.0	4.0	7.0	
CCCCS(=O)(=O)OCc1nsc2ccc(-n3c(=O)cc(C(F)(F)F)n(C)c3=O)cc12 [Example 381, 2,4(1H,3H)-Pyrimidinedione, 3-[3-(hydroxymethyl)-1,2-benzisothiazol-5-yl]-1-methyl-6-(trifluoromethyl)-, butanesulfonate (ester)]	0.0	3.0	4.0	6.0	6.0	7.0	8.0	8.0	3.0	5.0	6.0	7.0	6.0	7.0	8.0	8.0	0.0	4.0	7.0	7.0	

— patent EP0908457B1, “3-(1,2-benzisothiazol- and isoxazol-5-Y1)-2,4(1H,3H)-pyrimidinedione or thione and 3-(1,2-benzisothiazol- and isoxazol-5-y1)-4(3H)-pyrimidinone or thione herbicidal agents” (BASF AKTIENGESELLSCHAFT, priority 1997, dated 1999)
